Measurements reported in paper PMC4206221 (Science signaling, 2011).

What was measured:
PLK1 = PLK1 (Homo sapiens, UniProt P53350); test: kinase inhibition IC50; format: biochemical
PLK3 = PLK3 (Homo sapiens, UniProt Q9H4B4); test: kinase inhibition IC50; format: biochemical
Chain of PLK3 (Q9H4B4 whole entry): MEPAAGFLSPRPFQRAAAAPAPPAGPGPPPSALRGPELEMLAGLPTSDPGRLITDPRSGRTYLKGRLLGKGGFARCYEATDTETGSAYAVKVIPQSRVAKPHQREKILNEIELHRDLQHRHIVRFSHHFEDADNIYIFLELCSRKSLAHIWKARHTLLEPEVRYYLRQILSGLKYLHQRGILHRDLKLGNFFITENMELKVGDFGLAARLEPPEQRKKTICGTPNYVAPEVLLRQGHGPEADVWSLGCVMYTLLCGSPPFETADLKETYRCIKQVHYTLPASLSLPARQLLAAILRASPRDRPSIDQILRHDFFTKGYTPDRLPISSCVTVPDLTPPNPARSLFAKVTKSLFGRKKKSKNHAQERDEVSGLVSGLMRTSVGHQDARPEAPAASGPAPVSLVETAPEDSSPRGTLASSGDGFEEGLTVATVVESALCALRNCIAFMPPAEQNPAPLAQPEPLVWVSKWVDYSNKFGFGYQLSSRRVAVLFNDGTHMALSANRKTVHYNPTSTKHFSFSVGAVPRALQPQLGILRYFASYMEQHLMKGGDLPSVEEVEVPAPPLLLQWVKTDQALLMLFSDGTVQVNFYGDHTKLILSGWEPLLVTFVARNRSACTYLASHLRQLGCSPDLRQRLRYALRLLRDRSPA

Chain of PLK1 (P53350 2-603): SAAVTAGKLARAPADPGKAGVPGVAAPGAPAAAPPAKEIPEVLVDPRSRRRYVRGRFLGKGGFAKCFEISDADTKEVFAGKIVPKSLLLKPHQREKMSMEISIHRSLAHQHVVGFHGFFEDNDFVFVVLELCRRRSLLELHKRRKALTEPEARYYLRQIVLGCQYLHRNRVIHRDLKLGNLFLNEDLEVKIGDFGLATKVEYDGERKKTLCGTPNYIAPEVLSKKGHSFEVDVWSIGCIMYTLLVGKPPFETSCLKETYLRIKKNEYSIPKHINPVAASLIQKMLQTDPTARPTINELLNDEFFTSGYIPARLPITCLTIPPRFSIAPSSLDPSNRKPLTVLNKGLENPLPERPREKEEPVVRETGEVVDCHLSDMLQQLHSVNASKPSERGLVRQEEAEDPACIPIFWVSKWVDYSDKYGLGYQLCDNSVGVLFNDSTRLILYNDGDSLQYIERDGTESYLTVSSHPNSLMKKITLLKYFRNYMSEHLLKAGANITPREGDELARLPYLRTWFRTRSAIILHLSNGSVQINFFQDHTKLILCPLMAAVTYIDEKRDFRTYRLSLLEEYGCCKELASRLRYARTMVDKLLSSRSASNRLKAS

CC[C@@H]1C(=O)N(C)c2cnc(Nc3ccc(C(=O)NC4CCC(N5C[C@@H](C)O[C@@H](C)C5)CC4)cc3OC)nc2N1C(C)C (some centres unmarked) [BI 4834] was tested. Which IC50 (PLK1) did it give?
The IC50 was 7.6 nM.

What about the IC50 (PLK3) of the same compound?
Its IC50 is 198 nM.
